Columns and labels:
[1] = solutions in N-alkylpyrrolidones (N-methylpyrrolidone, N-ethylpyrrolidone); cited from earlier work
[2] = Solubility of phenothiazine in conventional organic solvents; type: physicochemical
Text: Only in the N-methylpyrrolidone already mentioned and in the chemically and toxicologically related dimethylformamide could concentrated solutions of 30 percent by weight or more be prepared.
Tetrahydrofuran and acetone could also be identified as good solvents. Unfortunately these solvents have low boiling points and flashpoints which renders transport, storage and handling of the solutions more difficult.

[3] = Solubility and low-temperature stability of inhibitors in (poly)alkylene glycols

SMILES | low temperature down to which solutions are stable [1] [°C] | concentrated solutions that could be prepared ([2]; in N-methylpyrrolidone and in dimethylformamide) [percent by weight] | solubility ([2]; in methanol, ethanol, isopropanol, toluene, cyclohexane or n-hexane) | solvent quality for phenothiazine ([2]; tetrahydrofuran and acetone) | temperature dependence of solubility ([3]; in (poly)alkylene glycols, between −20° C. and +20° C., FIG. 1) | solubility in poly(alkylene) glycol(s) ([3]; in poly(alkylene) glycol(s)) | temperature down to which stable solutions are formed ([3]; in poly(alkylene) glycol(s)) [°C]
COc1ccc(O)cc1 [MEHQ, hydroquinone monomethyl ether] | −11 | – | – | – | – | – | –
c1ccc2c(c1)Nc1ccccc1S2 [phenothiazine] | −11 | ≥ 30 | 2-3 percent by weight | good solvents | virtually independent of the temperature | readily soluble | −25
